Measured values as given in publication PMC7377239, “Cardiovascular Effects of Polychlorinated Biphenyls and Their Major Metabolites” (Environmental Health Perspectives, 2020).
Where a name gives a salt, the structure may show the parent alone. Read-outs that look alike come from different tables or passages of the source.

Test system: iCell cardiomyocytes (human iPSC-derived cardiomyocytes)
Experiment: High-content imaging of cytotoxicity and mitochondrial integrity in iPSC-CMs
Type: cell-based
Conditions: Homo sapiens; for viability at 0.01 µM / activity at 0.01 µM / viability at 0.1 µM / activity at 0.1 µM / viability at 1 µM / activity at 1 µM / viability at 10 µM / activity at 10 µM / viability at 100 µM / activity at 100 µM: 0.00 µM = 100.00; for viability at 0.1 µM / activity at 0.1 µM: 0.10 µM
Summary of the method: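 Human iPSC-derived cardiomyocytes were seeded on gelatin-coated 384-well plates at 5,000 cells per well and maintained for 12 d. Test chemicals were added as 10μL of 5× solutions to final concentrations of 0.01 to 100μM. Cells were stained with Hoechst 33342 and MitoTracker™ Orange, fixed in formaldehyde, and imaged by confocal high-content microscopy at 10× magnification.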

[1] = Cardiomyocyte, 1.5 h, read-out: cm.cam.90min
[2] = Cardiomyocyte, 1.5 h, read-out: cm.mii.90min
[3] = Cardiomyocyte, 1.5 h, read-out: cm.mito.90min
[4] = Cardiomyocyte, 1.5 h, read-out: cm.tc.90min
[5] = Cardiomyocyte, 24 h, read-out: cm.cam.24hrs
[6] = Cardiomyocyte, 24 h, read-out: cm.mii.24hrs
[7] = Cardiomyocyte, 24 h, read-out: cm.mito.24hrs
[8] = Cardiomyocyte, 24 h, read-out: cm.tc.24hrs
[9] = iPSC-CM, 1.5 h, iPSC-CM, read-out: cm.cam.90min POD
[10] = iPSC-CM, 1.5 h, iPSC-CM, read-out: cm.mii.90min POD
[11] = iPSC-CM, 1.5 h, iPSC-CM, read-out: cm.mito.90min POD
[12] = iPSC-CM, 1.5 h, iPSC-CM, read-out: cm.tc.90min POD
[13] = iPSC-CM, 24 h, iPSC-CM, read-out: cm.cam.24hrs POD
[14] = iPSC-CM, 24 h, iPSC-CM, read-out: cm.mii.24hrs POD
[15] = iPSC-CM, 24 h, iPSC-CM, read-out: cm.mito.24hrs POD
[16] = iPSC-CM, 24 h, iPSC-CM, read-out: cm.tc.24hrs POD

Structure (SMILES): O=S(=O)(O)Oc1cccc(-c2ccc(Cl)cc2)c1 [3'-yl PCB 3 sulfate]
- viability at 0.01 µM [1]: 99.5%
- activity at 0.01 µM [2]: 98.4%
- activity at 0.01 µM [3]: 99.8%
- viability at 0.01 µM [4]: 99.9%
- viability at 0.1 µM [1]: 98.2%
- activity at 0.1 µM [2]: 97.1%
- activity at 0.1 µM [3]: 98.3%
- viability at 0.1 µM [4]: 98.4%
- viability at 1 µM [1]: 102%
- activity at 1 µM [2]: 99.8%
- activity at 1 µM [3]: 102%
- viability at 1 µM [4]: 102%
- viability at 10 µM [1]: 95.4%
- activity at 10 µM [2]: 104%
- activity at 10 µM [3]: 95.4%
- viability at 10 µM [4]: 95.3%
- viability at 100 µM [1]: 99%
- activity at 100 µM [2]: 91.3%
- activity at 100 µM [3]: 99.3%
- viability at 100 µM [4]: 99.3%
- viability at 0.01 µM [5]: 97.1%
- activity at 0.01 µM [6]: 93.8%
- activity at 0.01 µM [7]: 95.4%
- viability at 0.01 µM [8]: 98%
- viability at 0.1 µM [5]: 105%
- activity at 0.1 µM [6]: 89.9%
- activity at 0.1 µM [7]: 105%
- viability at 0.1 µM [8]: 105%
- viability at 1 µM [5]: 101%
- activity at 1 µM [6]: 100%
- activity at 1 µM [7]: 99.9%
- viability at 1 µM [8]: 102%
- viability at 10 µM [5]: 103%
- activity at 10 µM [6]: 79.2%
- activity at 10 µM [7]: 104%
- viability at 10 µM [8]: 103%
- viability at 100 µM [5]: 97%
- activity at 100 µM [6]: 88.7%
- activity at 100 µM [7]: 97.8%
- viability at 100 µM [8]: 97.2%
- minimal effective concentration [9]: 100 µM
- minimal effective concentration [10]: 89.9 µM
- minimal effective concentration [11]: 100 µM
- minimal effective concentration [12]: 100 µM
- minimal effective concentration [13]: 100 µM
- minimal effective concentration [14]: 100 µM
- minimal effective concentration [15]: 100 µM
- minimal effective concentration [16]: 100 µM

Structure (SMILES): O=S(=O)(O)Oc1cc(-c2ccccc2)ccc1Cl [3-PCB 3 sulfate]
- minimal effective concentration (Cardiomyocyte, 1.5 h, cardiomyocytes (cm), cam, 90 min, read-out: POD cm.cam.90min): 100 µM
- minimal effective concentration (Cardiomyocyte, 1.5 h, cardiomyocytes (cm), mii, 90 min, read-out: POD cm.mii.90min): 100 µM
- minimal effective concentration (Cardiomyocyte, 1.5 h, cardiomyocytes (cm), mito, 90 min, read-out: POD cm.mito.90min): 100 µM
- minimal effective concentration (Cardiomyocyte, 1.5 h, cardiomyocytes (cm), tc, 90 min, read-out: POD cm.tc.90min): 100 µM
- minimal effective concentration (Cardiomyocyte, 24 h, cardiomyocytes (cm), cam, 24 hrs, read-out: POD cm.cam.24hrs): 100 µM
- minimal effective concentration (Cardiomyocyte, 24 h, cardiomyocytes (cm), mii, 24 hrs, read-out: POD cm.mii.24hrs): 22.8 µM
- minimal effective concentration (Cardiomyocyte, 24 h, cardiomyocytes (cm), mito, 24 hrs, read-out: POD cm.mito.24hrs): 100 µM
- minimal effective concentration (Cardiomyocyte, 24 h, cardiomyocytes (cm), tc, 24 hrs, read-out: POD cm.tc.24hrs): 100 µM

Structure (SMILES): O=S(=O)(O)Oc1cc(-c2ccccc2)ccc1Cl [3-yl PCB 3 sulfate]
- viability at 0.01 µM [1]: 100%
- activity at 0.01 µM [2]: 110%
- activity at 0.01 µM [3]: 100%
- viability at 0.01 µM [4]: 101%
- viability at 0.1 µM [1]: 97.4%
- activity at 0.1 µM [2]: 109%
- activity at 0.1 µM [3]: 97.4%
- viability at 0.1 µM [4]: 97.6%
- viability at 1 µM [1]: 104%
- activity at 1 µM [2]: 106%
- activity at 1 µM [3]: 104%
- viability at 1 µM [4]: 104%
- viability at 10 µM [1]: 106%
- activity at 10 µM [2]: 98.4%
- activity at 10 µM [3]: 106%
- viability at 10 µM [4]: 106%
- viability at 100 µM [1]: 104%
- activity at 100 µM [2]: 108%
- activity at 100 µM [3]: 104%
- viability at 100 µM [4]: 104%
- viability at 0.01 µM [5]: 87.7%
- activity at 0.01 µM [6]: 113%
- activity at 0.01 µM [7]: 86%
- viability at 0.01 µM [8]: 88.2%
- viability at 0.1 µM [5]: 99.9%
- activity at 0.1 µM [6]: 109%
- activity at 0.1 µM [7]: 99.5%
- viability at 0.1 µM [8]: 101%
- viability at 1 µM [5]: 96.5%
- activity at 1 µM [6]: 102%
- activity at 1 µM [7]: 93.7%
- viability at 1 µM [8]: 96.4%
- viability at 10 µM [5]: 91.9%
- activity at 10 µM [6]: 89.9%
- activity at 10 µM [7]: 88.6%
- viability at 10 µM [8]: 92.3%
- viability at 100 µM [5]: 96.9%
- activity at 100 µM [6]: 83.9%
- activity at 100 µM [7]: 97.6%
- viability at 100 µM [8]: 97.8%
- minimal effective concentration [9]: 100 µM
- minimal effective concentration [10]: 100 µM
- minimal effective concentration [11]: 100 µM
- minimal effective concentration [12]: 100 µM
- minimal effective concentration [13]: 100 µM
- minimal effective concentration [14]: 22.8 µM
- minimal effective concentration [15]: 100 µM
- minimal effective concentration [16]: 100 µM
